# From ChEMBL document CHEMBL4433219, “EC18 as a Tool To Understand the Role of HCN4 Channels in Mediating Hyperpolarization-Activated Current in Tissues” (ACS Med Chem Lett, 2019)
# Tested on: Cardiac muscle of left ventricle
# Test: Effect on cardiac electrophysiological profile in Mongrel perfused dog heart left ventricular muscle stimulated at basic cycle length of 1000 milliseconds assessed as Vmax at 10 uM measured after 25 mins by glass capillary microelectrode based electrophysiology assay (reference value: 244.6 +/- 30.87 V/s)
# Format: functional, Canis lupus familiaris
smiles,measurement,value
COc1ccc(CCN(C)[C@@H]2CCC[C@H](N3CCc4cc(OC)c(OC)cc4CC3=O)C2)cc1OC (racemic),Activity,140.6 V/s
